Measured values published in patent US20210393722A1, “COMPOSITION FOR IMPROVING SKIN BARRIER DAMAGE AND/OR ALLEVIATING SKIN INFLAMMATION, CONTAINING 3,5-DICAFFEOYLQUINIC ACID AS ACTIVE INGREDIENT” (KOREA UNIVERSITY RESEARCH AND BUSINESS FOUNDATION, priority 2018, published 2021).

How the values were obtained:
Format in all cases: cell-based, human
HaCaT cells [1] = assay: Western blot of protein expression in HaCaT cells treated with DNCB or SDS with AG extract (Example 3); settings: GSK0660 along with the AG extract
Method: (§1) HaCaT cells (human keratinocytes) were cultured in Dulbecco's modified Eagle's medium (DMEM) containing 10% fetal bovine serum (FBS) and 1% antibiotic-antimycotic solution at 37° C. in a 5% CO2 incubator. The cell culture medium was replaced with fresh DMEM every 48-72 hours. HaCaT cells within 5-17 passages were plated at a density of 1×10^4 cells per well in an 8-well chamber slide, or at a density of 1×10^6 cells per well in a 6-well culture plate in DMEM containing […] and 1% antibiotic-antimycotic solution. The cells were cultured for 24-48 hours in a 5% CO2 incubator at 37° C. Then, the medium was replaced with DMEM containing 1% fetal bovine serum. Thereafter, the cells were treated for 24 hours with DNCB (5 μM, Sigma-Aldrich, Louis, Mo., USA) or SDS (30 μM, Sigma-Aldrich) along with the AG extract (50 μg) and the PPARδ antagonist GSK0660 (Sigma-Aldrich). In addition, the cells were treated with 1 μM 3,5-dicaffeoylquinic acid (3,5-DCQA). The HaCaT cells were donated by Dr. Sang-Wook Son. All the reagents for cell culture were purchased from Welgene Inc. (Daegu, Korea). The concentrations of all the reagents were final concentrations.
For evaluation of the protein expression levels of PPARδ, AMPK and SPTLC2 in the HaCaT cells treated with SDS or DNCB together with AG, western blot was conducted after treating with the conditions of Example 2.
The concentration of the proteins in the sample was estimated by the Bradford method. 10 μg of the extracted proteins were loaded onto 10% sodium dodecyl sulfate (SDS)-polyacrylamide gel, and protein blotting on nitrocellulose membrane was performed for 90 minutes. The membrane was blocked overnight with 5% skim milk and washed 3 times with TBS-T for 10 minutes. Primary antibodies were allowed to bind to the membrane at room temperature for 2 hours. […] Images were processed manually with Kodak GBX developer and fixer reagents (Carestream Health, Inc., Rochester, N.Y., USA) and were analyzed using the Image J program. β-Actin was used as a internal control group for normalization of the loaded proteins.

HaCaT cells [2] = assay: Western blot for TRPV4, PPARδ and AMPK in HaCaT cells treated with antagonists for TRPV4, PPARδ or AMPK (Example 6); settings: HaCaT treated with antagonist
Method: (§2) Western blot was conducted for TRPV4, AMPK and PPARδ in HaCaT cells treated with antagonists for TRPV4, PPARδ and AMPK. The HaCaT cells fixed on a slide chamber were immunohistochemically stained with antibodies for keratin, involucrin, defensin and TNFα. Images were taken at 200× magnification, and the densities for the images were analyzed with the Image J program. The protein extracts were electrophoresed on 10% polyacrylamide gel and blotted to a nitrocellulose membrane. The nitrocellulose membrane was bound with primary and secondary antibodies sequentially, and then chemiluminescence was exposed to an X-ray film. The density for bands on the X-ray film was analyzed with the Image J program. The results were expressed as mean±SEM. The values were statistically analyzed by unpaired t-test. All the experiments were repeated three times.
To determine the priority of major regulators which are TRPV4, PPARδ and AMPK, the protein expression level of TRPV4, PPARδ and AMPK in HaCaT cells treated with antagonists for TRPV4, PPARδ or AMPK was measured by western blot.

HaCaT cells [3] = assay: Immunocytochemistry of keratin, involucrin, β-defensin 1 and TNFα in HaCaT cells treated with DNCB or SDS with AG extract (Example 4); settings: AG extract plus GSK0660
Method: as §1
In order to evaluate the expression of β-defensin 1, a representative β-defensin, together with skin barrier constituents such as keratin and involucrin and the inflammatory cytokine TNFα, immunocytochemistry (ICC) was conducted after treating with the condition of Example 2.
Cells in a chamber slide were fixed with ice-cold methanol for 15 minutes. The fixed cells were treated with a 0.3% hydrogen peroxide (H2O2) solution containing 0.3% normal horse serum for 5 minutes to remove peroxidase activity in the cells. After washing with PBS for 5 minutes, the cells were incubated with diluted normal blocking serum for 20 minutes, followed by treatment with diluted primary antibodies for 1 hour. The primary antibodies for involucrin and TNFα were purchased from Novus (Littleton, Colo. 80120, USA). The primary antibody for β-defensin 1 was purchased from Santa Cruz Biotechnology, Inc. (Dallas, Tex., USA), and the primary antibody for pan-keratin was purchased from Abcam (Cambridge, UK). After washing with PBS, the cells were treated with secondary antibodies for 30 minutes. After washing with PBS, the cells were treated with a premixed Vectastain ABC reagent solution for 30 minutes. […]
The protein extracts were electrophoresed on 10% polyacrylamide gel and blotted to a nitrocellulose membrane. […] The density for bands on the X-ray film was analyzed with the Image J program. […] Images were taken at 200× magnification, and the densities for the images were analyzed with the Image J program. The results were expressed as mean±SEM. The values were statistically analyzed by unpaired t-test. […]

HaCaT cells [4] = assay: Immunohistochemical staining of HaCaT cells treated with antagonists for TRPV4 and AMPK (Example 5); settings: HaCaT treated with antagonist; compared to the control group
Method: To investigate the effect of TRPV4 and AMPK on the expression of biomarkers related to skin barrier constituents, defense and inflammation, the protein expression for keratin, involucrin, β-defensin and TNFα was evaluated by immunohistochemical staining of HaCaT cells treated with antagonists for TRPV4 and AMPK.
as §2

HaCaT cells [5] = assay: Western blot of protein expression in HaCaT cells treated with 3,5-DCQA (Example 7); settings: 1 μM 3,5-DCQA
Method: as §1
In order to measure the protein expression of TRPV4, PPARδ, AMPK and SPTLC2 in HaCaT cells treated with 3,5-dicaffeoylquinic acid, western blot was performed after treating with the condition of Example 2.

HaCaT cells [6] = assay: Immunohistochemical staining of HaCaT cells treated with 3,5-DCQA (Example 8); settings: 1 μM 3,5-DCQA
Method: as §1
In order to measure the protein expression of keratin, involucrin, β-defensin and TNFα in HaCaT cells treated with 3,5-dicaffeoylquinic acid, immunohistochemical staining was performed after treating with the condition of Example 2.
The protein extracts were electrophoresed on 10% polyacrylamide gel and blotted to a nitrocellulose membrane. The nitrocellulose membrane was bound with primary and secondary antibodies sequentially, and then chemiluminescence was exposed to an X-ray film. The density for bands on the X-ray film was analyzed with the Image J program. The HaCaT cells fixed on a slide chamber were immunohistochemically stained with antibodies for keratin, involucrin, defensin and TNFα. Images were taken at 200× magnification, and the densities for the images were analyzed with the Image J program. The results were expressed as mean±SEM. The values were statistically analyzed by unpaired t-test. All the experiments were repeated three times.

COC(=O)c1sccc1S(=O)(=O)Nc1ccc(Nc2ccccc2)cc1OC [GSK0660]
AG extract-induced increase in the expression of P-AMPK (HaCaT cells [1]): reduced
AG extract-induced increase in the expression of PPARδ (HaCaT cells [1]): reduced
AG extract-induced increase in the expression of SPTLC2 (HaCaT cells [1]): reduced
protein expression level for PPARδ (HaCaT cells [2]): lowered
protein expression level for TRPV4 (HaCaT cells [2]): did not change
protein expression level for p-AMPK (HaCaT cells [2]): lowered
AG extract-increased involucrin protein expression (HaCaT cells [3]): offset
AG extract-increased keratin protein expression (HaCaT cells [3]): offset
AG extract-increased β-defensin 1 protein expression (HaCaT cells [3]): offset
effect of the AG extract on TNFα expression (HaCaT cells [3]): offset

c1cc(-c2cnn3cc(-c4ccc(OCCN5CCCCC5)cc4)cnc23)ccn1 [compound C]
protein expression of TNFα (HaCaT cells [4]): increased
protein expression of involucrin (HaCaT cells [4]): decreased significantly
protein expression of keratin (HaCaT cells [4]): decreased significantly
protein expression of β-defensin 1 (HaCaT cells [4]): decreased significantly
protein expression level for PPARδ (HaCaT cells [2]): did not affect
protein expression level for TRPV4 (HaCaT cells [2]): did not affect
protein expression level for p-AMPK (HaCaT cells [2]): decreased

O=C(/C=C/c1ccc(O)c(O)c1)O[C@@H]1C[C@](O)(C(=O)O)C[C@@H](OC(=O)/C=C/c2ccc(O)c(O)c2)[C@H]1O [3,5-DCQA, 3,5-dicaffeoylquinic acid]
protein expression of AMPK (HaCaT cells [5]): increased
protein expression of PPARδ (HaCaT cells [5]): increased
protein expression of SPTLC2 (HaCaT cells [5]): increased
expression of TNFα (HaCaT cells [6]): decreased
protein expression of involucrin (HaCaT cells [6]): increased
protein expression of keratin (HaCaT cells [6]): increased
protein expression of β-defensin 1 (HaCaT cells [6]): increased
